Data: ChEMBL document CHEMBL1142311, “Discovery and SAR of 1,3,4-thiadiazole derivatives as potent Abl tyrosine kinase inhibitors and cytodifferentiating agents” (Bioorg Med Chem Lett, 2008)
Active and inactive are the calls of the source. The rule behind the calls is not given here.

Key:
[1] = system: HL-60; assay: Effect on zymosan-stimulated human HL60 cells assessed as recovery of ROS metabolism; assay type: functional, cell-based
[2] = organism: Mus musculus; assay: Inhibition of p210Bcr-Abl phosphorylation in gleevec-resistant mouse 32D cells at 10 uM
[3] = system: HL-60; assay: Effect on PMA-stimulated human HL60 cells assessed as recovery of ROS metabolism; assay type: functional, cell-based
[4] = system: HL-60; assay: Growth inhibition of human HL60 cells after 96 hrs; assay type: functional, cell-based
[5] = organism: Mus musculus; assay: Inhibition of p210Bcr-Abl phosphorylation in gleevec-sensitive mouse 32D cells at 10 uM
[6] = Reduction of clonogenic activity in Bcr-Abl expressing mouse 32D clone cells; conditions: read-out: LD50
[7] = system: HL-60; assay: Growth inhibition of human HL60 cells upto 100 uM after 96 hrs; assay type: functional, cell-based
[8] = molecular target: Proto-oncogene tyrosine-protein kinase Src (Homo sapiens) (UniProt P12931); assay: Inhibition of recombinant human c-Src
Chain of Proto-oncogene tyrosine-protein kinase Src (Homo sapiens) (P12931 2-536 limits assumed): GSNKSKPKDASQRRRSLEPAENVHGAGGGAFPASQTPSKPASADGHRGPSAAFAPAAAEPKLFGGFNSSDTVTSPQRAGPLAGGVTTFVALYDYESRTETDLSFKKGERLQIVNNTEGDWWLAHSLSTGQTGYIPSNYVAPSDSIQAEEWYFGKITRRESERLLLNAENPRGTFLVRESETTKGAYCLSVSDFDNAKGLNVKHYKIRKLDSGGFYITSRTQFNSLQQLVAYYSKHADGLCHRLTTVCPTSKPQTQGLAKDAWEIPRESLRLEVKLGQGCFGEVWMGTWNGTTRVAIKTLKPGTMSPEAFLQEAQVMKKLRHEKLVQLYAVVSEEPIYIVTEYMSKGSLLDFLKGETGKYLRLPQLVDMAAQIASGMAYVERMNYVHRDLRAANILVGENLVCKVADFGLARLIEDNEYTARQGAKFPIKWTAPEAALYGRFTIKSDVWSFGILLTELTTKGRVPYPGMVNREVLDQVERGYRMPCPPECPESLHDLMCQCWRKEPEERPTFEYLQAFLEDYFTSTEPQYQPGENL

SMILES	Activity [1]	Activity [2]	Activity [3]	Activity [4]	Activity [5]	CC50 [6] [nM]	Activity [7]	Activity [8]
O=C(Nc1nnc(SCc2ccc(F)cc2)s1)c1ccc(F)cc1	Active	Active	Active	Active	Active	2200	inactive	
O=C(Nc1nnc(CCc2ccccc2)s1)c1ccc(I)cc1								inactive
